ChEMBL document CHEMBL3507680, “University of Dundee, Gates Library screen for HepG2 cell viability”

Assay: Human HepG2 cell viability assay in 384 well format
Format: toxicity, cell-based
Set-up: dose 125 nL, time 70.5 hour; cytotoxicity at 70.5 h: concentration not given beside the values
Conditions: HepG2 cells, read-out: Inhibition

SMILES | cytotoxicity at 70.5 h [%]
Cc1cc2ncn(C(=O)N3CCCC3)c2cc1C | -2.26
CCCS(=O)(=O)N1CCN(Cc2ccco2)CC1 | -7.67
CC1CCN(Cc2c(C(C)C)[nH]c3ncccc23)CC1 | -8.35
COc1ccc2c(c1)NC(C1CCNCC1)NS2(=O)=O (stereo not drawn) | -4.76
COc1ccc2c(c1)NC(C1CCN(C(=O)C3CC3)CC1)NS2(=O)=O (stereo not drawn) | -4.62
CC(C)OCCCNS(=O)(=O)c1ccc2c(c1)NC(=O)C(C)O2 (stereo not drawn) | -4.7
CCN(CC)CCCNCc1cc2cc(C)ccc2[nH]c1=O | 7.87
CN1CCC(c2cncc(Cl)n2)CC1 | -5.05
CS(=O)(=O)N1CCCC(Cc2cnc(Br)cn2)CC1 (stereo not drawn) | 13.7
Cc1cc(C(=O)N[C@@H]2CCC[C@@H](N3CCOCC3)[C@@H]2O)no1 | -6.42
Cc1noc(C)c1CCC(=O)NCC1(O)CCN(c2ccccn2)C1 (stereo not drawn) | -6.52
CN1CCCC(c2cccc(-c3cccc(F)c3)n2)C1 (stereo not drawn) | -5.53
Cc1cc(Oc2ccccc2C)nc(C2CCCN2)n1 (stereo not drawn) | 9.24
COCCC(=O)N1CCCC(c2n[nH]cc2C)C1 (stereo not drawn) | 15.1
NC(=O)c1cc(CC2CCCN(c3cnccn3)C2)ncn1 (stereo not drawn) | -6.16
CCCc1cc(C(=O)N[C@@H]2CCC[C@@H](N3CCCC3)[C@@H]2O)no1 | -4
Cc1ncc(CN2CCC(c3nc(O)cc(-c4ccsc4)n3)CC2)cn1 | -3.5
c1ncc(CN2CC(Cc3nccc4cc[nH]c34)C2)cn1 | -1.22
CC(C)c1nnc(CCC(=O)N2CCOC(c3cnccn3)C2)o1 (stereo not drawn) | -5.45
O=C(O)c1ccccc1-n1cnc(CN2CCCCCC2)c1 | -1.66
CN1CCNCC(Cc2cnc3ccccc3c2)C1 (stereo not drawn) | -3.02
Fc1ccc(Oc2nccnc2C2CCN(C3CCOCC3)CC2)cc1 | -3.07
CN1CCCC(c2cccc(-c3cccc(Cl)c3)n2)C1 (stereo not drawn) | 18
c1ccc(CN2CCCC[C@H]3CN(c4ncccn4)C[C@H]32)cc1 | -6.75

SMILES | cytotoxicity at 70.5 h [%]
c1ccc2ncc(CC3CCNC3)cc2c1 (stereo not drawn) | 19.8
COc1ccccc1C(=O)N1C[C@@H]2CCCCN(CC(N)=O)[C@@H]2C1 | -11.4
O=S(=O)(c1ccccc1)N1C[C@@H]2CCCCN(Cc3cccs3)[C@@H]2C1 | -17.2
Cc1cnc(CC2COCCN(C(=O)c3cncnc3)C2)cn1 (stereo not drawn) | -5.02
CCS(=O)(=O)N1C[C@@H](O)[C@H](N2CCc3ccccc3C2)C1 | -5.96
Cc1ncc(C(=O)N2CCCC2(C)C(=O)N2CCOCC2)c(C)n1 (stereo not drawn) | -7.99
Cc1ccc(S(=O)(=O)N2CCCC(c3n[nH]cc3C(=O)N(C)C)C2)cc1 (stereo not drawn) | 9.91
CCN(CC)C(=O)CN1CCC(c2nc(C)c3c(n2)N(C)CCC3)CC1 | 17.6
CC(C)C(=O)N1CCCC1c1nc(N(C)C)ncc1-c1ccc(Cl)cc1 (stereo not drawn) | 6.28
NC(=O)c1cccc(C2CCN(c3ncccn3)CC2)n1 | -13.4
Cc1cc(-c2ccccc2)nc(C2CCCN2S(C)(=O)=O)n1 (stereo not drawn) | -5.33
CC(=O)Nc1nccn1Cc1ccccc1Cl | -2.67
CCC(c1ccncc1)N(C)S(C)(=O)=O (stereo not drawn) | -1.1
O=C(Nc1cccnc1N1CCSCC1)c1ccc2c(c1)CCO2 | 53.2
CCn1nnnc1-c1cccc(NCc2nc(C)ccc2O)c1 | -6.25
c1cc2occc2c(N2CCCC(c3nncn3C3CC3)C2)n1 (stereo not drawn) | 17.6
COCCC(C)NS(=O)(=O)c1ccc(C)c(N(C)C)c1 (stereo not drawn) | -2.25
CC(c1cccnc1)N(C)S(C)(=O)=O (stereo not drawn) | -2.51
O=C(CCc1nnc(-c2ccccc2)o1)N1CCCC1c1ccc[nH]1 (stereo not drawn) | -3.43
COCCS(=O)(=O)Nc1cc(Cl)ccn1 | 14.3
COCCCN(C)C(=O)c1nnn(-c2ccccc2Cl)c1C | 1.5
O=C(CN(Cc1cccs1)C1CCS(=O)(=O)C1)NC1CCCCC1 (stereo not drawn) | 26.4
O=C(CN(Cc1cccs1)C1CCS(=O)(=O)C1)NCCc1cccs1 (stereo not drawn) | -2.26
CC(C)(CNC(=O)C(C)(C)Oc1ccc2c(c1)CCCC2=O)C(N)=O | 0.471

SMILES | cytotoxicity at 70.5 h [%]
COc1ccccc1NC(=O)c1[nH]nc(C(C)C)c1Br | -3.43
CC(=O)Nc1nc(COc2nc(C)no2)cs1 | 24.6
CSc1ccc(C(=O)N(c2ccc(F)cn2)C2CCOCC2)o1 | 30.2
O=S(=O)(CCc1ccccc1)Nc1cc(Cl)ccn1 | 0.152
COc1ccc2nc(C3CC3)cc(C(=O)NCc3noc(C)n3)c2c1 | -1.37
COc1ccc2nc(C3CC3)cc(C(=O)NCc3ncnn3C)c2c1 | 0.319
Cc1cncc(C(=O)N(c2ccc(F)cn2)C2CCOCC2)c1 | 5.37
CC(NC(=O)N1CCC2(C1)OCCO2)c1cccc(Cl)c1 (stereo not drawn) | -4.94
O=S1(=O)CCCN(Cc2ccccc2OCC(F)(F)F)CC1 | -8.02
Cc1ccc(O)c(C(=O)NCCS(=O)(=O)Cc2ccccc2)c1 | -5.32
Cc1ccc(C(=O)NCCS(=O)(=O)Cc2ccccc2)c(C)c1 | 1.96
Cc1cccc(C(=O)NCCS(=O)(=O)Cc2ccccc2)c1 | -8.95
CCCn1c(NC(=O)CNC(=O)OCC)nc2ccccc21 | -8.2
COc1ccccc1C1(CNc2cn[nH]c(=O)c2Cl)CCOCC1 | -13.8
O=C(COC1CCCCC1)Nc1ccn(Cc2cccnc2)n1 | -7.64
Cc1nc(C)n(CC2CCCN2c2ccnc(-c3ccccc3)n2)n1 (stereo not drawn) | -6.3
CCc1nc2n(n1)CC(Nc1nc(C)cc(N(C)C)n1)CC2 (stereo not drawn) | -6.31
NC(=O)c1ccc(=O)n(Cc2cc(Br)ccc2Cl)n1 | -5.48
COc1ccc(Br)cc1Cn1nc(C(N)=O)ccc1=O | -6.15
CCn1nnnc1-c1cccc(NC(=O)CCn2cc(C)cn2)c1 | -7.36
CCn1nc2c(cc1=O)CN(CC1CCCCO1)CC2 (stereo not drawn) | 11.3
CN(CCN(C)S(=O)(=O)CC1CCOCC1)c1ccccc1 | -3.42
O=c1[nH]c(=O)n(CC(O)c2ccc(F)cc2F)cc1Cl (stereo not drawn) | 0.374
CC1CS(=O)(=O)CCN1Cc1ccccc1N(C)C (stereo not drawn) | -0.403

SMILES | cytotoxicity at 70.5 h [%]
COc1ccc(Cn2nc(C(N)=O)ccc2=O)c(Cl)c1 | -3.77
CCOc1cccc(NCc2cnc(N3CCN(C)CC3)nc2)n1 | 3.56
O=C(NC1CCCCC1)c1c(F)cccc1F | 4.08
CCCn1nc2c(cc1=O)CN(CC1CCCCO1)CC2 (stereo not drawn) | -1.08
CC(=O)N1CCN(c2ccccc2CNc2ccc3[nH]ncc3c2)CC1 | 0.892
CCn1nnnc1-c1cccc(NC(=O)CCOC(C)C)c1 | -7.16
CC(=O)N1CCN(c2ccccc2CNc2cncc(C)c2)CC1 | 4.13
CCn1cc(S(=O)(=O)Nc2ccc3[nH]c(C4CCC4)nc3c2)cn1 | 24.1
CC(C)NC(=O)N1CCCCCC1C1CCN(c2ncccn2)CC1 (stereo not drawn) | 19.7
CCC(=O)Nc1ccc(F)cc1OC | 14.6
Cc1cc(C(=O)N(C)C2CCS(=O)(=O)C2)c2ccc(F)cc2n1 (stereo not drawn) | 10.8
CN(Cc1cc(Cl)c2c(c1)OCO2)Cc1cscn1 | 3.03
CCCN1CCC(N(C)C(=O)c2cc(C)nc3cc(F)ccc23)CC1 | -11.9
Cc1cc(N(C)C)nc(N2CCn3c(nnc3C3CC3)C2)n1 | 5.46
CS(=O)(=O)CCCN1CCSCC1c1ccc(Cl)cc1 (stereo not drawn) | -9.37
Cc1noc(C)c1NC(=O)N1CCC(NC(=O)OC(C)(C)C)CC1 | -5.75
Cc1ccc(C(=O)NS(=O)(=O)c2ccc3c(c2)OCCCO3)o1 | 11.7
CCOc1ncccc1C(=O)NC1CC(=O)N(CC(F)(F)F)C1 (stereo not drawn) | -6.92
Cc1nc(CN2CCCC2C(=O)OCc2ccccc2)oc1C (stereo not drawn) | -10.3
CC(C)Oc1ccccc1C(=O)NC1CC(=O)N(CC(F)(F)F)C1 (stereo not drawn) | -22.6
COC(=O)CCN(CC1CCCO1)C(=O)Cc1ccc(OC)c(OC)c1 (stereo not drawn) | -5.89
O=C(NCC1(O)CCSCC1)c1nccc2ccccc12 | 13.5
Cc1cc(NC(=O)CNc2cccc(OC(F)F)c2C)n(C)n1 | -6.65
CNC(=O)c1c(C)cccc1NCC(=O)Nc1cc(C)nn1C | 8.71

SMILES | cytotoxicity at 70.5 h [%]
C/C=C(/C)C(=O)NS(=O)(=O)c1ccc(Cl)cn1 | -0.512
Cc1oc(CNC(=O)Cc2ccccc2Cl)cc1C(=O)O | -7.56
C/C=C(/C)C(=O)NS(=O)(=O)c1ccc(C(F)(F)F)cn1 | -18.7
CSc1cc(CNC(=O)CCOc2ccccc2C)ccn1 | -7.07
CSC1(CNC(=O)c2ccn(-c3ccccc3F)n2)CCOCC1 | -8.53
Cc1cc(C(C)(O)CNC(=O)CCn2ccnc2C(C)C)c(C)o1 (stereo not drawn) | 9.42
OC1(CN2CCCC(Cn3cncn3)C2)CCCCC1 (stereo not drawn) | 6.45
CCN1CC(COC(=O)c2ccccc2Cl)CC1=O (stereo not drawn) | 7.47
O=C(c1ccc(NCc2cccc(F)c2)cc1)N1CCCC1 | 1.69
c1ncn(CC2CCCN(CC3CCCCC3)C2)n1 (stereo not drawn) | -7.32
CC1(C)CN(C(CNS(C)(=O)=O)c2ccc(Cl)cc2)CCO1 (stereo not drawn) | -5.58
COCC(=O)NC(C)c1sc(-c2ccccc2F)nc1C (stereo not drawn) | -2.79
CC(C)n1cnnc1CNC(=O)c1cnn(-c2ccccc2)c1 | 10
CCOc1ccc(Cl)c(C(=O)N2CCCC(c3ccn[nH]3)C2)n1 (stereo not drawn) | -2.59
O=C(c1cccc(NCc2cccc(F)c2)c1)N1CCC(O)CC1 | 10.8
O=C(c1ccc(NCc2cccc(F)c2)cc1)N1CCC(CO)CC1 | 2.87
Cc1nc(C)c(C(=O)Nc2ccc(-c3nnc(N(C)C)o3)cc2)o1 | -4.93
CN(C)C(=O)c1sc2ncccc2c1C1CNCCO1 (stereo not drawn) | -6.3
c1ccc(CN2CCNCC(Cc3cnccn3)C2)cc1 (stereo not drawn) | -1.06
Fc1ccccc1CNc1ccnc(C2CCNCC2)c1 | 18
CC(=O)NC1CCN(c2ccnc(C3CCNCC3)c2)CC1 | -5.48
CN(C)CCCN(Cc1ccco1)Cc1ccnn1C1CCCCO1 (stereo not drawn) | -8.64
